Patent US20260055083A1, “APOL1 INHIBITORS AND METHODS OF USE” (Maze Therapeutics, Inc., priority 2022, published 2026)

Key:
APOL1 G2 [1] = molecular target: T1, APOL1 G2 (Homo sapiens, UniProt O14791, DEL388-389); assay: APOL1 G2 FLIPR calcium influx assay (HEK T-REx/GCaMP6f/APOL1 G2 K6.3 cells); assay type: cell-based; settings: HEK293 clone expressing GCaMP6f, doxycycline-induced APOL1 G2; prevention of calcium influx; geometric mean of at least 2 assay runs
T1 construct: expressed in transfected cells; host or cells: HEK293/T-REx APOL1 G2 clone #2, doxycycline-inducible
T1 sequence (O14791 with tags, fused parts or gaps DEL388-389): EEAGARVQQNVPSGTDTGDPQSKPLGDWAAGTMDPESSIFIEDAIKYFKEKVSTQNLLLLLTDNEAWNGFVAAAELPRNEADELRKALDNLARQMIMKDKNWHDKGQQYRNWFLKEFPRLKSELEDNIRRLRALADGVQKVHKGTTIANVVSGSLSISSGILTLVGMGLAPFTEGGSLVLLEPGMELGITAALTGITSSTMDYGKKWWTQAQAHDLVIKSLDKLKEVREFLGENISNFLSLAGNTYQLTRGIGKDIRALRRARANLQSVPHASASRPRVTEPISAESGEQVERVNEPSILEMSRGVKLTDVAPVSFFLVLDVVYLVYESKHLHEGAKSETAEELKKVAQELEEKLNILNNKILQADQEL
How it was run: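 Cells express GCaMP6f stably and APOL1 G2 after a 6 h doxycycline induction. Duplicate 8-point dilutions sit 10 min at room temperature in Ca2+-free Tyrode's (pH 7.4), then Ca2+ is injected to 5 mM final and the FLIPR signal recorded. AC50s are geometric means across ≥2 days.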

APOL1 G2 [2] = molecular target: T1, APOL1 G2; assay: APOL1 G2 HEK293 rescue of cell death caused by overexpression of APOL1 (CellTiter-Glo); assay type: cell-based; settings: HEK293/T-REx APOL1 G2 clone #2, doxycycline induction, 17 hours, CellTiter-Glo luminescence; reversal of cell death; geometric mean of at least 2 assay runs
How it was run: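 Viability read by CellTiter-Glo luminescence after 17 h, 37 °C, in HEK293/T-REx cells expressing APOL1 G2 on 6 ng/mL doxycycline, 5,000 cells/well. Compounds tested as duplicate 8-point, 3-fold dilutions, 0.5% DMSO final; four-parameter logistic EC50, usually geometric mean of ≥2 days.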

Row | SMILES | AC50 (APOL1 G2 [1]) [nM] | EC50 (APOL1 G2 [2]) [nM]
1 | C[C@@H]1CN(CC(O)c2cccc(C#N)c2)C[C@H]1COc1ccc(S(C)(=O)=O)nc1 (single isomer, unassigned) [Compound 106, 3-[(1R or 1S)-1-hydroxy-2-[(3S,4S)-3-{[(6-methanesulfonylpyridin-3-yl)oxy]methyl}-4-methylpyrrolidin-1-yl]ethyl]benzonitrile] | > 10000 | > 10000
2 | C[C@H]1C[C@H](COc2ccc(S(C)(=O)=O)cc2)CN1CCc1cccc(Cl)c1 [Compound 143, (2S,4S)-1-[2-(3-chlorophenyl)ethyl]-4-[(4-methanesulfonylphenoxy)methyl]-2-methylpyrrolidine] | 936 | 1200
3 | C[C@@H]1C[C@H](COc2ccc(S(=O)(=O)CCCS(C)(=O)=O)cc2)CN1C1CCc2c(C#N)cccc2C1 (stereo partly drawn) [Compound 40, 6-[(2R,4S)-4-{[4-(3-methanesulfonylpropanesulfonyl)phenoxy]methyl}-2-methylpyrrolidin-1-yl]-5,6,7,8-tetrahydronaphthalene-1-carbonitrile] | 534 | 74.6
4 | C[C@@H]1C[C@H](COc2cnc(S(C)(=O)=O)cn2)CN1CCc1cccc(C#N)c1 [Compound 1, 3-(2-((2R,4S)-2-methyl-4-(((5-(methylsulfonyl)pyrazin-2-yl)oxy)methyl)pyrrolidin-1-yl)ethyl)benzonitrile] | 39.7 | 53.7
5 | C[C@@H]1C[C@H](COc2ccc(S(=O)(=O)CCO)cc2)CN1C1CCc2ccc(Cl)cc2C1 (single isomer, unassigned) [Compound 63, 2-(4-{[(3S,5R)-1-[(2S or 2R)-7-chloro-1,2,3,4-tetrahydronaphthalen-2-yl]-5-methylpyrrolidin-3-yl]methoxy}benzenesulfonyl)ethan-1-ol] | 188 | 24.8
6 | C[C@@H]1C[C@H](COc2ccc(S(C)(=O)=O)cc2)CN1C1Cc2ccc(Cl)cc2C1 (single isomer, unassigned) [Compound 2] | 1030 | 693
7 | CN=S(C)(=O)c1ccc(OC[C@@H]2CN(CCc3cccc(C#N)c3)C[C@H]2C)cn1 (single isomer, unassigned) [Compound 72] | 183 | 217
8 | CS(=O)(=O)c1ccc(OC[C@@H]2CN(CCc3cccc(C#N)c3)CCN2)cc1C(F)(F)F [Compound 113, 3-{2-[(3S)-3-{[4-methanesulfonyl-3-(trifluoromethyl)phenoxy]methyl}piperazin-1-yl]ethyl}benzonitrile] | 634 | 726
9 | C[C@@H]1C[C@H](COc2ccc(S(C)(=O)=O)cc2)CN1C1CCc2ccc(Cl)cc2C1 (single isomer, unassigned) [Compound 6, (2R,4S)-1-[(2R or 2S)-7-chloro-1,2,3,4-tetrahydronaphthalen-2-yl]-4-[(4-methanesulfonylphenoxy)methyl]-2-methylpyrrolidine] | 839 | 661
10 | C[C@@H]1C[C@H](COc2ccc(S(=O)(=O)CCS(C)(=O)=O)cc2)CN1C1CCc2c(C#N)cc(Cl)cc2C1 (single isomer, unassigned) [Compound 47, (6S or 6R)-3-chloro-6-[(2R,4S)-4-{[4-(2-methanesulfonylethanesulfonyl)phenoxy]methyl}-2-methylpyrrolidin-1-yl]-5,6,7,8-tetrahydronaphthalene-1-carbonitrile] | 926 | > 3340
11 | CN=S(C)(=O)c1ccc(OC[C@H]2C[C@@H](C)N(C3CCc4ccc(C#N)cc4C3)C2)cc1 (single isomer, unassigned) [Compound 38, (7S or 7R)-7-[(2R,4S)-2-methyl-4-({4-[methyl(methylimino)oxo-λ^6-sulfanyl]phenoxy}methyl)pyrrolidin-1-yl]-5,6,7,8-tetrahydronaphthalene-2-carbonitrile] | 590 | 65

Further lines, with some results ahead:

Row | AC50 (APOL1 G2 [1]) [nM] | SMILES | EC50 (APOL1 G2 [2]) [nM]
12 | 1250 | C[C@@H]1C[C@H](COc2ccc(S(C)(=O)=O)nc2)CN1CC(O)c1cccc(C#N)c1 (single isomer, unassigned) [Compound 93, 3-[(1R or 1S)-1-hydroxy-2-[(2R,4S)-4-{[(6-methanesulfonylpyridin-3-yl)oxy]methyl}-2-methylpyrrolidin-1-yl]ethyl]benzonitrile] | 1670
13 | 2330 | CS(=O)(=O)c1ccc(OC[C@@H]2CN(C(CO)Cc3cccc(Cl)c3)CCN2)cc1 (single isomer, unassigned) [Compound 119, (2S or 2R)-3-(3-chlorophenyl)-2-[(3S)-3-[(4-methanesulfonylphenoxy)methyl]piperazin-1-yl]propan-1-ol] | 633
14 | 1070 | C[C@@H]1C[C@H](COc2ccc(S(=O)(=O)CCS(C)(=O)=O)cc2)CN1C1CCc2ccc(Cl)cc2C1 (single isomer, unassigned) [Compound 50, (2R,4S)-1-[(2S or 2R)-7-chloro-1,2,3,4-tetrahydronaphthalen-2-yl]-4-{[4-(2-methanesulfonylethanesulfonyl)phenoxy]methyl}-2-methylpyrrolidine] | 346
15 | 2210 | CS(=O)(=O)c1ccc(OC[C@H]2C[C@H]3CCCC(Cc4cc(Cl)cc(C#N)c4)N3C2)cc1 (single isomer, unassigned) [Compound 125, 3-{[(2S,5R or 5S,8aR)-2-[(4-methanesulfonylphenoxy)methyl]-octahydroindolizin-5-yl]methyl}-5-chlorobenzonitrile] | 449
16 | 2840 | CC(C(O)c1cc(Cl)cc(C#N)c1)N1C[C@@H](COc2ccc(S(C)(=O)=O)cc2)C[C@H]1C (single isomer, unassigned) [Compound 98, 3-chloro-5-[(1R,2S or 1S,2R or 1S,2S or 1R,2R)-1-hydroxy-2-[(2R,4S)-4-[(4-methanesulfonylphenoxy)methyl]-2-methylpyrrolidin-1-yl]propyl]benzonitrile] | > 10000
17 | 843 | C[C@@H]1C[C@H](COc2ccc(S(C)(=O)=O)cc2)CN1C1CCc2c(Cl)cccc2C1 (stereo partly drawn) [Compound 88, (2R,4S)-1-(5-chloro-1,2,3,4-tetrahydronaphthalen-2-yl)-4-[(4-methanesulfonylphenoxy)methyl]-2-methylpyrrolidine] | 215
18 | 250 | CC(=O)N(C)CCS(=O)(=O)c1ccc(OC[C@@H]2CN(CCc3cccc(C#N)c3)C[C@H]2C)cc1 [Compound 76, N-[2-(4-{[(3S,4S)-1-[2-(3-cyanophenyl)ethyl]-4-methylpyrrolidin-3-yl]methoxy}benzenesulfonyl)ethyl]-N-methylacetamide] | 222
19 | 370 | C[C@@H]1CN(CCc2cc(Cl)cc(C#N)c2)C[C@H]1COc1cc(F)c(S(C)(=O)=O)c(F)c1 [Compound 82, 3-chloro-5-{2-[(3S,4S)-3-[(3,5-difluoro-4-methanesulfonylphenoxy)methyl]-4-methylpyrrolidin-1-yl]ethyl}benzonitrile] | 165
20 | 483 | C[C@@H]1CN(C(CO)Cc2cccc(Cl)c2)C[C@H]1COc1ccc(S(C)(=O)=O)cc1 (single isomer, unassigned) [Compound 117, (2S or 2R)-3-(3-chlorophenyl)-2-[(3S,4S)-3-[(4-methanesulfonylphenoxy)methyl]-4-methylpyrrolidin-1-yl]propan-1-ol] | 755
21 | 857 | C[C@@H]1C[C@H](COc2ccc(S(=O)(=O)CCCS(C)(=O)=O)cc2)CN1C1CCc2ccc(Cl)cc2C1 (single isomer, unassigned) [Compound 54, (2R,4S)-1-[(2S or 2R)-7-chloro-1,2,3,4-tetrahydronaphthalen-2-yl]-4-{[4-(3-methanesulfonylpropanesulfonyl)phenoxy]methyl}-2-methylpyrrolidine] | 54.8
22 | 794 | C[C@@H]1C[C@H](COc2ccc(S(=O)(=O)CCO)cc2)CN1C1CCc2ccc(C#N)cc2C1 (single isomer, unassigned) [Compound 59, (7R or 7S)-7-[(2R,4S)-4-{[4-(2-hydroxyethanesulfonyl)phenoxy]methyl}-2-methylpyrrolidin-1-yl]-5,6,7,8-tetrahydronaphthalene-2-carbonitrile] | 380
23 | 714 | C[C@@H]1C[C@H](COc2ccc(S(=O)(=O)CCCS(C)(=O)=O)cc2)CN1C1CCc2ccc(C#N)cc2C1 (single isomer, unassigned) [Compound 36, (7S or 7R)-7-[(2R,4S)-4-{[4-(3-methanesulfonylpropanesulfonyl)phenoxy]methyl}-2-methylpyrrolidin-1-yl]-5,6,7,8-tetrahydronaphthalene-2-carbonitrile] | 36.3
24 | 905 | CC(C(O)c1cc(Cl)cc(C#N)c1)N1C[C@@H](COc2ccc(S(C)(=O)=O)cc2)[C@H](C)C1 (single isomer, unassigned) [Compound 103, 3-chloro-5-((1S,2S or 1R,2R)-1-hydroxy-2-((3S,4S)-3-methyl-4-((4-(methylsulfonyl)phenoxy)methyl)pyrrolidin-1-yl)propyl)benzonitrile] | 655
